Reference: patent publication US12371454B2, “Cyclic peptide compound having Kras inhibitory action” (priority 2019, dated 2025)
Positions of bridges follow the written chain, without caps; N, C: chain ends. Non-standard residues stand in square brackets, D forms with d. Residues, ends and D or L forms follow the SMILES beside them. *: point of attachment. hPhe(3-Cl-4-CF3) = N[C@@H](CCc1ccc(C(F)(F)F)c(Cl)c1)C(=O)O; NMePhe(3-Cl) = CN[C@@H](Cc1cccc(Cl)c1)C(=O)O; NMePhe(4-Cl) = CN[C@@H](Cc1ccc(Cl)cc1)C(=O)O; NMePhe(4-Me) = CN[C@@H](Cc1ccc(C)cc1)C(=O)O; NMeGly(cPent) = CN[C@H](C(=O)O)C1CCCC1; Phe(3-F) = N[C@@H](Cc1cccc(F)c1)C(=O)O; Phe(3-I) = N[C@@H](Cc1cccc(I)c1)C(=O)O; NMeGly(cBu) = CN[C@H](C(=O)O)C1CCC1; NMeCha = CN[C@@H](CC1CCCCC1)C(=O)O; Azetidine(3,3-F2) = FC1(F)CN(*)C1; NMeChg = CN[C@H](C(=O)O)C1CCCCC1; NMeF = CN[C@@H](Cc1ccccc1)C(=O)O; NMeE = CN[C@@H](CCC(=O)O)C(=O)O; NMeD = CN[C@@H](CC(=O)O)C(=O)O; NMeL = CN[C@@H](CC(C)C)C(=O)O; NMeNva = CCC[C@H](NC)C(=O)O; NMeV = CN[C@H](C(=O)O)C(C)C; d(β3hA) = C[C@@H](N)CC(=O)O; NMeA = CN[C@@H](C)C(=O)O; NMeAib = CNC(C)(C)C(=O)O; Piperidide = C1CCN(*)CC1; Pyrrolidide = C1CCN(*)C1; Ac5c = NC1(C(=O)O)CCCC1; Aze = O=C(O)[C@@H]1CCN1; Sar = CNCC(=O)O

Biological target: T1, Kras and SOS1 (biotin-tagged human Kras loaded with GDP, His-tagged human SOS1) (Homo sapiens, UniProt P01116, G12D)
T1 construct: made in house; host or cells: E. coli (stated for Kras only)
T1 sequence (P01116 1-188 isoform P01116-2 G12D): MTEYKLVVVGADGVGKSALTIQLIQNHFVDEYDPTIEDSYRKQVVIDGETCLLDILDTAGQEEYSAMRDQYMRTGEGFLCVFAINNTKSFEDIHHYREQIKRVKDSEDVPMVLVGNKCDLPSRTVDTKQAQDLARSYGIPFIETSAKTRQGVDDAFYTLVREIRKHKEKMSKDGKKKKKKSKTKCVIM
Experiment: Protein-protein interaction inhibition between Kras and SOS1 (KrasGl2D-SOS PPI) using AlphaScreen
Type: binding
Settings: AlphaScreen; biotin-tagged human Kras loaded with GDP, His-tagged human SOS1; read-out: KRAS G12D-SOS PPI IC50
In short: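 Energy transfer from nickel-chelate donor beads bound to His-SOS1 to streptavidin acceptor beads bound to biotin-Kras, expressed in E. coli and loaded with GDP after purification, was monitored. Donors were excited at 680 nm; singlet oxygen reaching acceptors gave emission read at 520-620 nm.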

| SMILES | IC50 [nM] |
| --- | --- |
| CC[C@H](C)[C@@H]1NC(=O)[C@H](CC(C)C)N(C)C(=O)C[C@@H](C(=O)N(C)C)N(C)C(=O)[C@H](C2CCCC2)N(C)C(=O)C2(CCCC2)NC(=O)[C@H](Cc2cccc(Cl)c2)N(C)C(=O)[C@H](CCc2ccc(C(F)(F)F)c(Cl)c2)NC(=O)CN(C)C(=O)[C@H](CC2CCCCC2)N(C)C(=O)[C@@H]2CCN2C(=O)[C@H](C)N(C)C1=O [Compound 179] ([NMeL]I[NMeA][Aze][NMeCha][Sar][hPhe(3-Cl-4-CF3)][NMePhe(3-Cl)][Ac5c][NMeGly(cPent)][NMeD]-NMe2; lactam N-11) | 42 |
| CC[C@H](C)[C@@H]1NC(=O)[C@H](CC(C)C)N(C)C(=O)C[C@@H](C(=O)N2CCCCC2)N(C)C(=O)[C@H](C(C)C)N(C)C(=O)C2(CCCC2)NC(=O)[C@@H]2CCCN2C(=O)[C@H](CCc2ccc(C(F)(F)F)c(Cl)c2)NC(=O)CN(C)C(=O)[C@H](CC2CCCCC2)N(C)C(=O)[C@@H]2CCN2C(=O)[C@H](CCC(=O)NC)N(C)C1=O [Compound 180] ([NMeL]I[NMeE](NHMe)[Aze][NMeCha][Sar][hPhe(3-Cl-4-CF3)]P[Ac5c][NMeV][NMeD]-Piperidide; lactam N-11) | 11 |
| CC[C@H](C)[C@@H]1NC(=O)[C@H](CC(C)C)N(C)C(=O)C[C@@H](C)NC(=O)[C@H](C2CCC2)N(C)C(=O)C2(CCCC2)NC(=O)[C@@H]2CCCN2C(=O)[C@H](CCc2ccc(C(F)(F)F)c(Cl)c2)NC(=O)CN(C)C(=O)[C@H](CC2CCCCC2)N(C)C(=O)CN(C)C(=O)CN(C)C1=O [Compound 183] (cyclo([Ac5c][NMeGly(cBu)][d(β3hA)][NMeL]I[Sar][Sar][NMeCha][Sar][hPhe(3-Cl-4-CF3)]P)) | 26 |
| CC[C@H](C)[C@@H]1NC(=O)[C@H](C)N(C)C(=O)C[C@@H](C(=O)N2CCCC2)NC(=O)[C@H](C(C)C)N(C)C(=O)[C@H](Cc2ccccc2)N(C)C(=O)[C@H](Cc2ccccc2)NC(=O)[C@H](Cc2cccc(F)c2)NC(=O)CN(C)C(=O)[C@H](Cc2ccc(Cl)cc2)N(C)C(=O)CN(C)C(=O)CN(C)C1=O [Compound 184] ([NMeA]I[Sar][Sar][NMePhe(4-Cl)][Sar][Phe(3-F)]F[NMeF][NMeV]D-Pyrrolidide; lactam N-11) | 320 |
| CC[C@H](C)[C@@H]1NC(=O)[C@H](CC(C)C)N(C)C(=O)C[C@@H](C)NC(=O)[C@H](C(C)C)N(C)C(=O)C2(CCCC2)NC(=O)[C@@H]2CCCN2C(=O)[C@H](CCc2ccc(C(F)(F)F)c(Cl)c2)NC(=O)CN(C)C(=O)[C@H](CC2CCCCC2)N(C)C(=O)CN(C)C(=O)[C@@H]2CCCN2C1=O [Compound 185] (cyclo([Ac5c][NMeV][d(β3hA)][NMeL]IP[Sar][NMeCha][Sar][hPhe(3-Cl-4-CF3)]P)) | 170 |
| CC[C@H](C)[C@@H]1NC(=O)[C@H](C)N(C)C(=O)C[C@@H](C)NC(=O)[C@H](C2CCCC2)N(C)C(=O)C2(CCCC2)NC(=O)[C@@H]2CCCN2C(=O)[C@H](CCc2ccc(C(F)(F)F)c(Cl)c2)NC(=O)CN(C)C(=O)[C@H](Cc2cccc(Cl)c2)N(C)C(=O)[C@@H]2CCCN2C(=O)CN(C)C1=O [Compound 186] (cyclo([Ac5c][NMeGly(cPent)][d(β3hA)][NMeA]I[Sar]P[NMePhe(3-Cl)][Sar][hPhe(3-Cl-4-CF3)]P)) | 48 |
| CCC[C@H]1C(=O)N(C)CC(=O)N[C@@H](CCc2ccc(C(F)(F)F)c(Cl)c2)C(=O)N2CCC[C@H]2C(=O)NC2(CCCC2)C(=O)N(C)[C@@H](C2CCCCC2)C(=O)N(C)[C@H](C(=O)N2CCCCC2)CC(=O)N(C)[C@@H](CC(C)C)C(=O)N[C@@H]([C@@H](C)CC)C(=O)N(C)CC(=O)N(C)CC(=O)N1C [Compound 187] ([NMeL]I[Sar][Sar][NMeNva][Sar][hPhe(3-Cl-4-CF3)]P[Ac5c][NMeChg][NMeD]-Piperidide; lactam N-11) | 3.2 |
| CC[C@H](C)[C@@H]1NC(=O)[C@H](CC(C)C)N(C)C(=O)C[C@@H](C(=O)N2CCCCC2)N(C)C(=O)[C@H](CC(C)C)NC(=O)C(C)(C)N(C)C(=O)[C@H](Cc2ccc(OC)cc2)NC(=O)[C@H](Cc2cccc(I)c2)NC(=O)CN(C)C(=O)[C@H](Cc2ccc(C)cc2)N(C)C(=O)[C@@H]2CCN2C(=O)CN(C)C1=O [Compound 188] ([NMeL]I[Sar][Aze][NMePhe(4-Me)][Sar][Phe(3-I)]Y(Me)[NMeAib]L[NMeD]-Piperidide; lactam N-11) | 6.1 |
| CC[C@H](C)[C@@H]1NC(=O)[C@H](C)N(C)C(=O)C[C@@H](C(=O)N2CCCCC2)N(C)C(=O)[C@H](C(C)C)N(C)C(=O)[C@H](CC(C)C)NC(=O)[C@H](CC(=O)N2CC(F)(F)C2)N(C)C(=O)[C@H](CCc2ccc(C(F)(F)F)c(Cl)c2)NC(=O)CN(C)C(=O)[C@H](CC2CCCCC2)N(C)C(=O)CN(C)C(=O)CN(C)C1=O [Compound 190] ([NMeA]I[Sar][Sar][NMeCha][Sar][hPhe(3-Cl-4-CF3)][NMeD](Azetidine(3,3-F2))L[NMeV][NMeD]-Piperidide; lactam N-11) | 150 |
